Source: US12336981B2, “Compounds and compositions for the inhibition of NAMPT” (Valo Health, Inc., priority 2010, dated 2025)
Where two headings read alike, the source gives them in different places.

Columns and labels:
NAMPT = molecular target: T1, NAMPT (Homo sapiens, UniProt P43490); assay: Biochemical inhibition assay: NAMPT enzymatic reaction, NMN quantified by mass spectrometry; conditions: read-out: Biochem IC50
T1 construct: His tag; host or cells: E. coli
How it was run: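 Inhibition of E. coli-expressed His-tagged human NAMPT, measured as NMN formation by mass spectrometry after a 30 min room-temperature reaction containing 1 μM NAM, 100 μM PRPP and 2.5 mM ATP.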

A2780 cells = assay: In-vitro cell proliferation assay (SRB), A2780 cells; format: cell-based; conditions: Homo sapiens, A2780, 72 h, A2780 cells, 72 hours, read-out: A2780 IC50
How it was run: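 Viable cells measured by SRB staining after 6% TCA fixation, absorbance 570 nm. Media-only background subtracted; % inhibition derived at two compound concentrations.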

T1 sequence (P43490 whole entry): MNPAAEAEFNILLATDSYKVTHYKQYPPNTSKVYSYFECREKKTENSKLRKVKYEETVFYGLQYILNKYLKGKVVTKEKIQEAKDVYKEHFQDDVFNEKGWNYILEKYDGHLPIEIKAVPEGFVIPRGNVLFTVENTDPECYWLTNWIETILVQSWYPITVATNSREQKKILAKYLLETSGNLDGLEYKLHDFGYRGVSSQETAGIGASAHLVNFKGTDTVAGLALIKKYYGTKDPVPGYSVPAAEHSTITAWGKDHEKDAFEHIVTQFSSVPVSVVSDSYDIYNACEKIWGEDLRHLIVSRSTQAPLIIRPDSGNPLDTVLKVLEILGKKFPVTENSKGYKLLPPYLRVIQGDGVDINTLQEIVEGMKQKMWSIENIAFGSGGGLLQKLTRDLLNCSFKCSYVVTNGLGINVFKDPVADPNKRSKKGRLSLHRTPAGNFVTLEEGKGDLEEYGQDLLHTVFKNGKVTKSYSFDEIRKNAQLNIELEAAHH

SMILES | IC50 (NAMPT; NAMPT enzymatic reaction) | IC50 (A2780 cells; SRB) | IC50 (NAMPT; NAMPT enzymatic assay) | IC50 (A2780 cells; SRB assay)
CCc1ccccc1S(=O)(=O)c1ccc(CNC(=O)c2cc3ccncc3o2)cc1 [N-({4-[(2-ethylbenzene)sulfonyl]phenyl}methyl)furo[2,3-c]pyridine-2-carboxamide] | 5.4 nM | 12.9 nM | – | –
O=C(NCc1ccc(S(=O)(=O)c2ccc(C(F)(F)F)cn2)cc1)c1cc2ccncc2s1 [N-({4-[5-(trifluoromethyl)pyridine-2-sulfonyl]phenyl}methyl)thieno[2,3-c]pyridine-2-carboxamide] | – | 100 to 1000 nM | 23.5 nM | –
O=C(NCc1ccc(S(=O)(=O)c2cccc(Cl)c2)cc1)c1cnc2nccn2c1 | 1.3 nM | 1.2 nM | – | –
Cc1cccc(C)c1S(=O)(=O)c1ccc(CNC(=O)c2cnc3[nH]ncc3c2)cc1 [N-({4-[(2,6-dimethylbenzene)sulfonyl]phenyl}methyl)-1H-pyrazolo[3,4-b]pyridine-5-carboxamide] | 159 nM | 100 to 1000 nM | – | –
COc1ccc(S(=O)(=O)c2ccc(CNC(=O)c3cc4ccncc4s3)cc2)cc1C [N-({4-[{4-methoxy-3-methylbenzene)sulfonyl]phenyl}methyl)thieno[2,3-c]pyridine-2-carboxamide] | 3 nM | – | – | 2.4 nM
COc1cc(S(=O)(=O)c2ccc(CNC(=O)c3ccc4nccn4c3)cc2)ccc1Cl | 13.5 nM | 6 nM | – | –
O=C(NCc1ccc(S(=O)(=O)c2cccc(Oc3ccc(F)cc3)c2)cc1)c1ccc2nccn2c1 | – | 34 nM | 15.1 nM | –
O=C(NCc1ccc(S(=O)(=O)Nc2cccc3c(=O)occc23)cc1)c1cc2cnccc2[nH]1 [N-({4-[(1-oxo-1H-isochromen-5-yl)sulfamoyl]phenyl}methyl)-1H-pyrrolo[3,2-c]pyridine-2-carboxamide] | 8 nM | – | – | 2270 nM
O=C(NCc1ccc(S(=O)(=O)c2ccccc2)cc1)c1ccc2cnccc2c1 [N-{[4-(benzenesulfonyl)phenyl]methyl}isoquinoline-6-carboxamide] | 16100 nM | – | – | 21300 nM
CNS(=O)(=O)c1ccccc1S(=O)(=O)c1ccc(CNC(=O)c2cnc3[nH]ncc3c2)cc1 [N-[(4-{[2-(methylsulfamoyl)benzene]sulfonyl}phenyl)methyl]-1H-pyrazolo[3,4-b]pyridine-5-carboxamide] | – | > 10000 nM | > 167 nM | –
CC(C)Oc1cccc(S(=O)(=O)c2ccc(CNC(=O)c3cc4ccncc4s3)cc2)c1F | – | 6.6 nM | 4.7 nM | –
COc1ccc(S(=O)(=O)c2ccc(CNC(=O)c3ccc4nccn4c3)cc2)c(OC)n1 [N-{[4-(2,6-dimethoxypyridine-3-sulfonyl)phenyl]methyl}imidazo[1,2-a]pyridine-6-carboxamide] | – | 9.2 nM | 43.3 nM | –
COc1cccc(F)c1S(=O)(=O)c1ccc(CNC(=O)c2ccc3nccn3c2)cc1 [N-({4-[(2-fluoro-6-methoxybenzene)sulfonyl]phenyl}methyl)imidazo[1,2-a]pyridine-6-carboxamide] | 48.1 nM | 26.4 nM | – | –
CCOc1cc(Cl)ccc1S(=O)(=O)c1ccc(CNC(=O)c2cc3ccncc3s2)cc1 | 2.4 nM | < 0.4 nM | – | –
Cn1ncc2c(S(=O)(=O)c3ccc(CNC(=O)c4cnc5[nH]ncc5c4)cc3)cccc21 [N-{[4-(1-methyl-1H-indazole-4-sulfonyl)phenyl]methyl}-1H-pyrazolo[3,4-b]pyridine-5-carboxamide] | – | 6.4 nM | 20.3 nM | –
O=C(NCc1ccc(S(=O)(=O)c2cc(F)ccc2CO)cc1)c1cc2ccncc2o1 [N-[(4-{[5-fluoro-2-(hydroxymethyl)benzene]sulfonyl}phenyl)methyl]furo[2,3-c]pyridine-2-carboxamide] | – | 67 nM | 22.9 nM | –
O=C(NCc1ccc(S(=O)(=O)c2cccc(C(F)(F)F)c2Cl)cc1)c1cc2cnccc2[nH]1 | – | 8.8 nM | 36.4 nM | –

SMILES | IC50 (NAMPT; NAMPT enzymatic reaction) | IC50 (A2780 cells; SRB) | IC50 (NAMPT; NAMPT enzymatic assay) | IC50 (A2780 cells; SRB assay)
COc1cc(C)cc(S(=O)(=O)c2ccc(CNC(=O)c3cnc4nccn4c3)cc2)c1 | 1.6 nM | 1.3 nM | – | –
COc1ccc(S(=O)(=O)c2ccc(CNC(=O)c3cc4ccncc4s3)cc2)c(Cl)c1 | 2.7 nM | 5.5 nM | – | –
O=C(NCc1ccc(S(=O)(=O)c2ccc(C(F)(F)F)cc2Cl)cc1)c1cnc2[nH]ncc2c1 [N-[(4-{[2-chloro-4-(trifluoromethyl)benzene]sulfonyl}phenyl)methyl]-1H-pyrazolo[3,4-b]pyridine-5-carboxamide] | – | 86.9 nM | 114 nM | –
COc1ccc(S(=O)(=O)c2ccc(CNC(=O)c3cnc4[nH]ncc4c3)cc2)c(C)c1 [N-({4-[(4-methoxy-2-methylbenzene)sulfonyl]phenyl}methyl)-1H-pyrazolo[3,4-b]pyridine-5-carboxamide] | 29 nM | 55.5 nM | – | –
Cc1cc(S(=O)(=O)c2ccc(CNC(=O)c3cc4ccncc4s3)cc2)c(C)cc1F [N-({4-[(4-fluoro-2,5-dimethylbenzene)sulfonyl]phenyl}methyl)thieno[2,3-c]pyridine-2-carboxamide] | 4.2 nM | 13.6 nM | – | –
O=C(NCc1ccc(S(=O)(=O)c2ccccc2)cc1)c1ccc2ncccc2c1 [N-{[4-(benzenesulfonyl)phenyl]methyl}quinoline-6-carboxamide] | – | > 10000 nM | 108 nM | –
O=C(NCc1ccc(S(=O)(=O)c2cc(F)ccc2Cl)cc1)c1cnc2nccn2c1 | 10.5 nM | 53 nM | – | –
COc1ccc(C(C)=O)cc1S(=O)(=O)c1ccc(CNC(=O)c2ccc3nccn3c2)cc1 [N-({4-[(5-acetyl-2-methoxybenzene)sulfonyl]phenyl}methyl)imidazo[1,2-a]pyridine-6-carboxamide] | 37.9 nM | 12.7 nM | – | –
O=C(NCc1ccc(S(=O)(=O)c2cc(F)cc(OCC(F)(F)F)c2)cc1)c1cc2cnccc2[nH]1 | – | 1.9 nM | 5.6 nM | –
O=C(NCc1ccc(S(=O)(=O)c2ccc(C(F)(F)F)cc2Cl)cc1)c1cc2cnccc2[nH]1 | – | 25.4 nM | 127 nM | –
Cc1cn(C)c(S(=O)(=O)c2ccc(CNC(=O)c3ccc4nccn4c3)cc2)n1 [N-{[4-(1,4-dimethyl-1H-imidazole-2-sulfonyl)phenyl]methyl}imidazo[1,2-a]pyridine-6-carboxamide] | – | 95.4 nM | 100 to 1000 nM | –
O=C(NCc1ccc(S(=O)(=O)c2ccc(C3CCCCC3)cc2)cc1)c1cnc2nccn2c1 | 5.8 nM | 7.7 nM | – | –
Cc1nc(S(=O)(=O)c2ccc(CNC(=O)c3cc4ccncc4s3)cc2)ccc1F [N-{[4-(5-fluoro-6-methylpyridine-2-sulfonyl)phenyl]methyl}thieno[2,3-c]pyridine-2-carboxamide] | – | 7.1 nM | 8.3 nM | –
O=C(COc1cccnc1)Nc1ccc(S(=O)(=O)N2CCCCC2)cc1 [N-[4-(piperidine-1-sulfonyl)phenyl]-2-(pyridin-3-yloxy)acetamide] | 1.1 nM | – | – | 6.6 nM
CCS(=O)(=O)c1cccc(S(=O)(=O)c2ccc(CNC(=O)c3cc4ccncc4s3)cc2)c1 | – | 5.4 nM | 2.8 nM | –
O=C(NCc1ccc(S(=O)(=O)c2ccc(C(F)(F)F)c(Cl)c2)cc1)c1cc2ccncc2s1 | – | 2.3 nM | 3 nM | –
Cc1ccc(S(=O)(=O)c2ccc(CNC(=O)c3cc4cnccc4[nH]3)cc2)cc1 [N-({4-[(4-methylbenzene)sulfonyl]phenyl}methyl)-1H-pyrrolo[3,2-c]pyridine-2-carboxamide] | 6 nM | – | – | 9 nM
